What was measured:
[1] = test system: C57BL/6J mice; experiment: Discrete-trials temporal discrimination task; format: in vivo, mouse
[2] = test system: 5-HT2A; details: ref Kehne et al., 1996; cited from earlier work
[3] = test system: 5-HT2A; details: in mice; ref Canal et al., 2013; cited from earlier work
[4] = test system: 5-HT2A; details: in humans; ref Almaula et al., 1996; Pigott et al., 2012; Canal et al., 2013; cited from earlier work
[5] = M100907 0.03 mg/kg SC, 10 min before session
[6] = M100907 0.1 mg/kg SC, 10 min before session
[7] = M100907 0.3 mg/kg SC, 10 min before session
[8] = DOI 0.3 mg/kg IP, 10 min before session
[9] = DOI 1 mg/kg IP, 10 min before session
[10] = DOI 3 mg/kg IP, 10 min before session, dose-response experiment
[11] = M100907 blockade experiment: vehicle pretreatment, DOI 3 mg/kg IP
[12] = SB-242,084 blockade experiment: vehicle pretreatment, DOI 3 mg/kg IP

Compound: COc1cccc([C@H](O)C2CCN(CCc3ccc(F)cc3)CC2)c1OC [M100907, (R)-(+)-α-(2,3-dimethoxyphenyl)-1-[2-(4-fluorophenyl)ethyl]-4-piperidinemethanol]
- Effect of pretreatment on the T50 increase produced by DOI ([1]; M100907 0.03 mg/kg SC pretreatment, DOI 3 mg/kg IP): failed to completely block the T50 increase produced by DOI
- Effect of pretreatment on the response to DOI (%B responding) ([1]; M100907 0.03 mg/kg SC pretreatment, DOI 3 mg/kg IP, 6.9 and 10.5 s stimuli): blocked the effect of DOI on %B responding
- Difference limen [1, 5]: 1.31 ± 0.25 s
- Slope (ε) [1, 5]: 0.997±0.114
- T50 [1, 5]: 6.42 ± 0.23 s
- Trials completed [1, 5]: 163.6±6.5
- Weber fraction ([1]; M100907 0.03 mg/kg SC, 10 min before session, mean±SEM): 0.214±0.051
- Difference limen [1, 6]: 1.48 ± 0.15 s
- Slope (ε) [1, 6]: 0.791±0.070
- T50 [1, 6]: 6.80 ± 0.37 s
- Trials completed [1, 6]: 155.4±7.4
- Weber fraction ([1]; M100907 0.1 mg/kg SC, 10 min before session, mean±SEM): 0.220±0.021
- Difference limen [1, 7]: 1.60 ± 0.20 s
- Slope (ε) [1, 7]: 0.857±0.184
- T50 ([1]; M100907 0.3 mg/kg SC, 10 min before session, 0.3 mg/kg): 7.71 ± 0.45 s
- Weber fraction ([1]; M100907 0.3 mg/kg SC, 10 min before session, mean±SEM): 0.206±0.021
- Affinity for 5-HT2A [2]: subnanomolar
- Fold lower affinity for 5-HT2C and α1 receptors than for 5-HT2A [2]: at least 100 fold
- Selectivity for 5-HT2A vs. 5-HT2C receptors [3]: 165 fold

Compound: COc1cc(CC(C)N)c(OC)cc1I.Cl (stereo not drawn) [DOI, 1-(2,5-dimethoxy-4-iodophenyl)-2-aminopropane hydrochloride]
- Difference limen [1, 8]: 1.20 ± 0.12 s
- Slope (ε) [1, 8]: 1.009±0.108
- T50 [1, 8]: 6.36 ± 0.17 s
- Trials completed [1, 8]: 188.3±2.7
- Weber fraction ([1]; DOI 0.3 mg/kg IP, 10 min before session, mean±SEM): 0.192±0.022
- Difference limen [1, 9]: 1.29 ± 0.14 s
- Slope (ε) [1, 9]: 0.968±0.133
- T50 [1, 9]: 6.43 ± 0.13 s
- Trials completed [1, 9]: 174.6±5.4
- Weber fraction [1, 9]: 0.200±0.021
- Difference limen [1, 10]: 1.89 ± 0.14 s
- Slope (ε) [1, 10]: 0.608±0.044
- T50 [1, 10]: 7.08 ± 0.41 s
- Weber fraction [1, 10]: 0.275±0.030
- %B responding (proportional choice of lever B) ([1]; DOI 3 mg/kg IP, 6.1, 7.8, 8.7 and 10.5 s after trial onset, dose-response experiment): significant reductions in %B responding
- %B responding (proportional choice of lever B) ([1]; DOI 3 mg/kg IP, 6.9, 7.8, 9.6 and 10.5 s trials, M100907 blockade experiment): reduced %B responding
- Difference limen [1, 11]: 1.71 ± 0.14 s
- Slope (ε) [1, 11]: 0.661±0.044
- T50 [1, 11]: 7.35 ± 0.20 s
- Trials completed [1, 11]: 148.3±8.8
- Weber fraction [1, 11]: 0.233±0.018
- Difference limen [1, 12]: 1.74 ± 0.16 s
- Slope (ε) [1, 12]: 0.713±0.101
- T50 [1, 12]: 6.89 ± 0.31 s
- Trials completed [1, 12]: 142.5±8.8
- Weber fraction [1, 12]: 0.255±0.026
- Correct responding during the 10.5 s-trials ([1]; after drug treatment that reduced %B responding at long stimulus intervals): more than 80%
- Selectivity for 5-HT2A vs. 5-HT2C receptors [3]: 12 fold
- Selectivity for 5-HT2A [4]: ~ 5 fold
